Data taken from article PMC7238120, “Strong and Selective Inhibitory Effects of the Biflavonoid Selamariscina A against CYP2C8 and CYP2C9 Enzyme Activities in Human Liver Microsomes” (Pharmaceutics, 2020).

Columns and labels:
Assay type in all cases: in vitro ADME
CYP2E1 = target: T1, CYP2E1 (Homo sapiens, UniProt P05181); assay: Inhibition of CYP2E1 (chlorzoxazone) activity in pooled human liver microsomes; details: substrate chlorzoxazone 50 µM; pooled HLMs; read-out: IC50, P450 2E1
T1 construct: incubation mixtures containing pooled human liver microsomes (HLMs, XTreme 200, XenoTech); tissue XenoTech XTreme 200; host or cells: pooled human liver microsomes
T1 sequence (P05181 whole entry): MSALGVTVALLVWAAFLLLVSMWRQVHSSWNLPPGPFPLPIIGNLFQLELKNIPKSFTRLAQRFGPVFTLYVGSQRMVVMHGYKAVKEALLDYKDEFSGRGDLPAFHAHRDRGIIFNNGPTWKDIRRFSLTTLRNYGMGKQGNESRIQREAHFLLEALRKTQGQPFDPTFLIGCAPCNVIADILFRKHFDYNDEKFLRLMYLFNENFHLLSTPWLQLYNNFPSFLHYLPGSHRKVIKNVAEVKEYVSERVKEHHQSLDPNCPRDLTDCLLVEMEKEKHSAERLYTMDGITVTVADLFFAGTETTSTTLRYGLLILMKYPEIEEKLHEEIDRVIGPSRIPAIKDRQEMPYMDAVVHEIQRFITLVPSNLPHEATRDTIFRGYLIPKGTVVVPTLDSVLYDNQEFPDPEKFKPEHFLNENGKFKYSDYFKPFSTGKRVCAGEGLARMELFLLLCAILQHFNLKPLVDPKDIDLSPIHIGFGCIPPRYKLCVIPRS
Description: (§1) The inhibitory potential of the five biflavonoids on the metabolism of nine P450 probe substrates was evaluated using previously developed methods with minor modifications. Biflavonoids were dissolved in methanol. The final concentration of methanol in the incubation mixture was 1.0% (v/v). We used these P450 probe substrates: phenacetin for CYP1A2, coumarin for CYP2A6, bupropion for CYP2B6, amodiaquine for CYP2C8, diclofenac for CYP2C9, omeprazole for CYP2C19, dextromethorphan for CYP2D6, chlorzoxazone for CYP2E1 and midazolam for CYP3A (Table 1). The incubation mixtures containing pooled human liver microsomes (HLMs, XTreme 200, XenoTech), P450 probe substrates, and inhibitor (0~20 µM) were pre-incubated at 37 °C for 5 min. The concentration range of the inhibitor varied (0, 0.002, 0.005, 0.02, 0.05, and 0.2 µM for CYP2C8; 0, 0.02, 0.05, 0.2, 0.5, and 2 µM for CYP2C9; 0, 0.5, 2, 5, 10, and 20 µM for other P450 isoforms). After pre-incubation, a reduced nicotinamide adenine dinucleotide phosphate (NADPH) generation system containing 1 unit/ml G6PDH, 1.3 mM β- nicotinamide adenine dinucleotide phosphate (β- NADP^+), 3.3 mM MgCl2, and 3.3 mM G6P was added to initiate a reaction, and further incubated for 10 min at 37 °C. The reaction was stopped by adding 50 μL of ice-cold acetonitrile containing 7 nM trimipramine (internal standard, IS). After centrifugation at 18,000 g (5 min, 4 °C), aliquots of supernatants were analyzed by LC–MS/MS (Shimadzu LCMS 8060 system, Shimadzu, Kyoto, Japan). All microsomal incubations were conducted in triplicate.
(§2) All metabolites and the IS were separated on a Kinetex XB-C18 column (100 × 2.10 mm, 2.6 μm, 100 Å; Phenomenex, Torrance, CA, USA) and analyzed using a Shimadzu LCMS 8060 triple-quadrupole mass spectrometer coupled with a Nexera X2 ultra high-performance liquid chromatography system (Shimadzu, Kyoto, Japan) equipped with an electrospray ionization interface. The mobile phase consisted of 0.1% formic acid in water (A) and 0.1% formic acid in acetonitrile (B). The elution condition was set as 8% B (0–0.5 min), 8%→60% B (0.5–5 min), 60% B (5–6 min), 60%→8% B (6–6.1 min) and 8% B (6.1–9 min) for the analysis of metabolites of P450 probe substrates and set as 0%→40% B (0–1 min), 40%→50% B (1–5 min), 50%→0% B (5–5.1 min), and 0% B (5.1–8 min) for the analysis of metabolites of UGT probe substrates. The flow rate was 0.2 mL/min. Electrospray ionization was performed in positive-ion mode at 4000 V or in negative-ion mode at −3500 V. The optimum operating conditions were determined as follows: vaporizer temperature, 300 °C; capillary temperature, 350 °C; collision gas (argon) pressure, 1.5 mTorr. Quantitation was conducted in selected reaction monitoring (SRM) modes with the precursor-to-product ion transition for each metabolite (Table 1 and Table 2).
(§3) We analyzed the data with Shimadzu LabSolution LC–MS software. The IC50 values were calculated by WinNonlin software (Pharsight, Mountain View, CA, USA). The type of inhibition and the apparent kinetic parameters for inhibitory activity (Ki) were determined by following several criteria: visual inspection of Dixon plots, Lineweaver–Burk double reciprocal plots, and secondary plots of Lineweaver–Burk plots versus biflavonoid concentrations, the size of the sum of squares of the residuals, Akaike Information Criteria values, the S.E. and 95% confidence interval of the parameter estimates from the nonlinear regression analysis using the WinNonlin software. The models tested included competitive, competitive partial, noncompetitive, noncompetitive partial, uncompetitive, uncompetitive partial, and mixed-type inhibition.

CYP2C8 = target: T2, CYP2C8 (Homo sapiens, UniProt P10632); assay: Inhibition of CYP2C8-catalyzed amodiaquine N-deethylation in pooled human liver microsomes; parameters: incubation mixtures containing pooled human liver microsomes (HLMs, XTreme 200, XenoTech); tissue XenoTech XTreme 200; host or cells: pooled human liver microsomes; details: for Ki: amodiaquine 0.1, 0.4, 1 µM, average ± standard error, triplicate; for IC50: substrate amodiaquine 1 µM, read-out: IC50, P450 2C8; for IC50 / inhibition at 10 min, 0.5 µM: pooled HLMs 0.25 mg/mL; for inhibition at 10 min, 0.5 µM: inhibitor 0.5 μM
T2 sequence (P10632 1-490): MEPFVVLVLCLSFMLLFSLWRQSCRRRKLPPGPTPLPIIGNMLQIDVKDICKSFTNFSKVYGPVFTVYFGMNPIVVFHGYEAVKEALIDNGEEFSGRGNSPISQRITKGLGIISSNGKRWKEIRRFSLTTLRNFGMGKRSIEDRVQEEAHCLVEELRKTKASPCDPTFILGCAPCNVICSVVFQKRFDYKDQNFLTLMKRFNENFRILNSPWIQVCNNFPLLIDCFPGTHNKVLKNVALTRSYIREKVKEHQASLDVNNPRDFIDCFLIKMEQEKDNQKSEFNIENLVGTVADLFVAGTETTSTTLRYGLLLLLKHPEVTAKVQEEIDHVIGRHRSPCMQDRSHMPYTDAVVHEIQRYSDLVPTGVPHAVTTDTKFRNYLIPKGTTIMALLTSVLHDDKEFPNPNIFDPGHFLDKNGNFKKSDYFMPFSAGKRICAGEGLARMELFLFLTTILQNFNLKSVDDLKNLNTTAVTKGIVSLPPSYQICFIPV
Description: as §1
The other conditions were the same as in the cytochrome P450 inhibition study.
We used HLMs to determine the mechanisms and constants (Ki values) for selamariscina A inhibition of CYP1A2, CYP2B6, CYP2C8, CYP2C9 and CYP3A. The selamariscina A (0~50 μM) was added into the reaction mixtures, each of which contained concentrations of phenacetin (20, 50, and 100 μM), bupropion (20, 50, and 100 μM), amodiaquine (0.1, 0.4, and 1 μM), rosiglitazone (2, 5, and 10 μM), diclofenac (1, 4, and 10 μM), tolbutamide (50, 100, and 200 μM), and midazolam (0.5, 2, and 5 μM). The substrates were used at concentrations approximately near to their respective Km values. The concentration range of selamariscina A varied (0, 0.002, 0.005, 0.02, 0.05, and 0.2 μM for CYP2C8; 0, […], 0.02, 0.05, 0.2, and 0.5 μM for CYP2C9; 0, 0.2, 0.5, 2, 5, and 20 µM for CYP3A; 0, 0.5, 2, 5, 20, and 50 μM for CYP1A2 and CYP2B6). The other conditions were the same as in the cytochrome P450 inhibition study.
as §2
We analyzed the data with Shimadzu LabSolution LC–MS software. The IC50 values were calculated by WinNonlin software (Pharsight, Mountain View, CA, USA).

CYP2D6 = target: T3, CYP2D6 (Homo sapiens, UniProt P10635); assay: Inhibition of CYP2D6 (dextromethorphan) activity in pooled human liver microsomes; details: substrate dextromethorphan 5 µM; pooled HLMs; read-out: IC50, P450 2D6
T3 construct: incubation mixtures containing pooled human liver microsomes (HLMs, XTreme 200, XenoTech); tissue XenoTech XTreme 200; host or cells: pooled human liver microsomes
T3 sequence (P10635 whole entry): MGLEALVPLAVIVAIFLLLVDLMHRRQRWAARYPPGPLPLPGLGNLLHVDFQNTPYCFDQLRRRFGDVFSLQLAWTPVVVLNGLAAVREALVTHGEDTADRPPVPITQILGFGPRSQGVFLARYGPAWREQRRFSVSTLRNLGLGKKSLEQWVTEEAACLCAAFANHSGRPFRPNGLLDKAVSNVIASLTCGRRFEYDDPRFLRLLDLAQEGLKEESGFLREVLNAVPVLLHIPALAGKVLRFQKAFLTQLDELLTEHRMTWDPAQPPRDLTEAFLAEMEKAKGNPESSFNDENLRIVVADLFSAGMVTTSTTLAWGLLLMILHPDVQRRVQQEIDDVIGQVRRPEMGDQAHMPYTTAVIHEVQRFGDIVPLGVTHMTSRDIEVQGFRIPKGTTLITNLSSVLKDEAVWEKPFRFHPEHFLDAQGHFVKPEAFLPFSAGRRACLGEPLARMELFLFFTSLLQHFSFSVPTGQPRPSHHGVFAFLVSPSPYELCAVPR
Description: as §1, §2, §3

[1] = human, pooled human liver microsomes, probe amodiaquine

| SMILES | IC50 (CYP2E1) [nM] | Mode of Inhibition, CYP2C8 amodiaquine (CYP2C8; HLMs) | Ki (CYP2C8; HLMs) [nM] | IC50 (CYP2C8) [nM] | IC50 (CYP2D6) [nM] | Times stronger CYP2C8 inhibitory potential than amentoflavone (CYP2C8) | Times weaker CYP2C8 inhibition than selamariscina A (CYP2C8; IC50 comparison at 0.25 mg/mL microsomal protein) | inhibition at 10 min, 0.5 µM (CYP2C8; [1]) [%] | inhibition at 10 min, 5 µM (CYP2C8; human, pooled human liver microsomes, probe amodiaquine, inhibitor 5 μM, HLMs) [%] |
| --- | --- | --- | --- | --- | --- | --- | --- | --- | --- |
| O=c1cc(-c2ccc(O)c(-c3c(O)cc(O)c4c(=O)cc(-c5ccc(O)cc5)oc34)c2)oc2cc(O)cc(O)c12 [amentoflavone] | 3300 | Noncompetitive | 83 ± 9 | 84 | 2600 | – | – | – | – |
| CC(C)(O)c1ccccc1CC[C@@H](SCC1(CC(=O)O)CC1)c1cccc(/C=C/c2ccc3ccc(Cl)cc3n2)c1 [montelukast, reference compound] | > 50000 | – | – | – | > 50000 | – | more than 25 times | 52.7 | 86.1 |
| O=c1cc(-c2ccc(O)c(-c3c(O)cc4oc(-c5ccc(O)cc5)cc(=O)c4c3O)c2)oc2cc(O)cc(O)c12 [robustaflavone] | 2900 | Noncompetitive | 84 ± 16 | 83 | 2200 | – | – | – | – |
| O=c1cc(-c2ccc(O)c(-c3c(-c4ccc(O)cc4)oc4cc(O)cc(O)c4c3=O)c2)oc2cc(O)cc(O)c12 [taiwaniaflavone] | 6000 | Noncompetitive | 142 ± 26 | 120 | 3200 | – | – | – | – |

Further lines, with some results ahead:

| IC50 (CYP2E1) [nM] | Mode of Inhibition, CYP2C8 amodiaquine (CYP2C8; HLMs) | Ki (CYP2C8; HLMs) [nM] | IC50 (CYP2C8) [nM] | IC50 (CYP2D6) [nM] | Times stronger CYP2C8 inhibitory potential than amentoflavone (CYP2C8) | SMILES | Times weaker CYP2C8 inhibition than selamariscina A (CYP2C8; IC50 comparison at 0.25 mg/mL microsomal protein) | inhibition at 10 min, 0.5 µM (CYP2C8; [1]) [%] | inhibition at 10 min, 5 µM (CYP2C8; human, pooled human liver microsomes, probe amodiaquine, inhibitor 5 μM, HLMs) [%] |
| --- | --- | --- | --- | --- | --- | --- | --- | --- | --- |
| 2300 | Noncompetitive | 103 ± 17 | 83 | 2700 | – | O=c1cc(-c2ccc(O)cc2)oc2c(-c3c(O)cc(O)c4c(=O)cc(-c5ccc(O)cc5)oc34)c(O)cc(O)c12 [cupressuflavone] | – | – | – |
| > 20000 | Noncompetitive | 18 ± 2 | 19 | 10600 | more than 4.5 times | O=C1CC(c2cc(-c3c(O)ccc4c(=O)cc(-c5ccc(O)cc5)oc34)c(O)cc2O)Oc2cc(O)cc(O)c21 (centres unmarked) [selamariscina A] | – | 92.8 | – |
